Results taken from ChEMBL document CHEMBL1201862, “PubChem BioAssay data set” (2004).
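1) Cells in 96-well plates. 2) Compound, 48 h, 5 concentrations. 3) Linear interpolation between surrounding doses. 4) Unreached endpoint = highest concentration. Abbreviation: GI50, concentration required for 50% inhibition of growth.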 Calls of active or inactive are those of the source. No stated cut-off is given here; in the data, active = GI50 up to about 1.1 µM and inactive = higher.

Key:
Assay in all cases: DTP human tumour cell line panel, 48 h
[1] = tested on: A498
[2] = tested on: EKVX
[3] = tested on: HOP-62
[4] = tested on: HOP-92
[5] = tested on: HT-29
[6] = tested on: IGROV-1
[7] = tested on: MOLT-4
[8] = tested on: NCI-H23
[9] = tested on: OVCAR-3
[10] = tested on: OVCAR-5
[11] = tested on: OVCAR-8
[12] = tested on: RXF 393
[13] = tested on: SK-MEL-2
[14] = tested on: SNB-19
[15] = tested on: SNB-75
[16] = tested on: T47D
[17] = tested on: UACC-257
[18] = tested on: UACC-62
[19] = tested on: UO-31
[20] = tested on: MCF7

Row | Compound | GI50 [1] | GI50 [2] | GI50 [3] | GI50 [4] | GI50 [5] | GI50 [6] | GI50 [7] | GI50 [8] | GI50 [9] | GI50 [10] | GI50 [11] | GI50 [12] | GI50 [13] | GI50 [14] | GI50 [15] | GI50 [16] | GI50 [17] | GI50 [18] | GI50 [19] | GI50 [20]
1 | Cn1c(=O)c2nc(CCCCC(=O)O)[nH]c2n(C)c1=O | > 100 µM (inactive) | > 100 µM (inactive) | > 100 µM (inactive) | > 100 µM (inactive) | > 100 µM (inactive) | 61.7 µM (inactive) | > 100 µM (inactive) | > 100 µM (inactive) | > 100 µM (inactive) | > 100 µM (inactive) | > 100 µM (inactive) | > 100 µM (inactive) | > 100 µM (inactive) | > 100 µM (inactive) | > 100 µM (inactive) | > 100 µM (inactive) | > 100 µM (inactive) | > 100 µM (inactive) | > 100 µM (inactive) | –
2 | COc1ccc(C[C@H]2COC(=O)[C@@H]2Cc2ccccc2)cc1OC | > 100 µM (inactive) | > 100 µM (inactive) | > 100 µM (inactive) | – | > 100 µM (inactive) | > 100 µM (inactive) | > 100 µM (inactive) | > 100 µM (inactive) | > 100 µM (inactive) | > 100 µM (inactive) | > 100 µM (inactive) | – | – | > 100 µM (inactive) | – | > 100 µM (inactive) | > 100 µM (inactive) | – | – | > 100 µM (inactive)
3 | O=C1NC(N2CCCCC2)=N/C1=C\c1cccs1 | – | > 100 µM (inactive) | > 100 µM (inactive) | > 100 µM (inactive) | > 100 µM (inactive) | > 100 µM (inactive) | > 100 µM (inactive) | > 100 µM (inactive) | > 100 µM (inactive) | > 100 µM (inactive) | > 100 µM (inactive) | > 100 µM (inactive) | > 100 µM (inactive) | > 100 µM (inactive) | – | > 100 µM (inactive) | > 100 µM (inactive) | > 100 µM (inactive) | > 100 µM (inactive) | > 100 µM (inactive)
4 | Cc1ccc(S(=O)(=O)NC(=O)NCCC(=O)O)cc1 | – | – | > 100 µM (inactive) | > 100 µM (inactive) | > 100 µM (inactive) | > 100 µM (inactive) | > 100 µM (inactive) | 19.3 µM (inactive) | – | > 100 µM (inactive) | > 100 µM (inactive) | > 100 µM (inactive) | > 100 µM (inactive) | > 100 µM (inactive) | > 100 µM (inactive) | > 100 µM (inactive) | > 100 µM (inactive) | > 100 µM (inactive) | > 100 µM (inactive) | > 100 µM (inactive)
5 | COC(=O)[C@@H]1Cc2ccc(OC)c(c2)OCCC(=O)N1 | – | > 100 µM (inactive) | > 100 µM (inactive) | – | > 100 µM (inactive) | 3.14 µM (inactive) | > 100 µM (inactive) | > 100 µM (inactive) | > 100 µM (inactive) | > 100 µM (inactive) | > 100 µM (inactive) | > 100 µM (inactive) | > 100 µM (inactive) | > 100 µM (inactive) | > 100 µM (inactive) | > 100 µM (inactive) | > 100 µM (inactive) | > 100 µM (inactive) | > 100 µM (inactive) | > 100 µM (inactive)
6 | COc1ccc(-c2cc(-c3ccco3)c(C#N)c(=S)n2C2OC(COC(C)=O)C(OC(C)=O)C(OC(C)=O)C2OC(C)=O)cc1 (stereo not given) | – | 13.5 µM (inactive) | 2.61 µM (inactive) | 4.02 µM (inactive) | 3.24 µM (inactive) | 13.3 µM (inactive) | 12.3 µM (inactive) | 9.71 µM (inactive) | 7.13 µM (inactive) | 15.6 µM (inactive) | 3.78 µM (inactive) | 9.53 µM (inactive) | – | 5.66 µM (inactive) | 5.85 µM (inactive) | 5.24 µM (inactive) | – | 3.72 µM (inactive) | 13.7 µM (inactive) | 23.6 µM (inactive)
7 | c1ccc2c(c1)Sc1ccccc1N2CCCN1c2ccccc2Sc2ccccc21 | > 100 µM (inactive) | > 100 µM (inactive) | 95.1 µM (inactive) | > 100 µM (inactive) | > 100 µM (inactive) | > 100 µM (inactive) | 76.4 µM (inactive) | > 100 µM (inactive) | 63.5 µM (inactive) | > 100 µM (inactive) | 54.2 µM (inactive) | 78.5 µM (inactive) | – | > 100 µM (inactive) | – | > 100 µM (inactive) | > 100 µM (inactive) | > 100 µM (inactive) | > 100 µM (inactive) | > 100 µM (inactive)
8 | COc1ccc2c(c1)CCCN1CCc3cc(OC)c(OC)cc3C21 (stereo not given) | – | > 100 µM (inactive) | > 100 µM (inactive) | – | 47.9 µM (inactive) | > 100 µM (inactive) | 50.5 µM (inactive) | – | > 100 µM (inactive) | > 100 µM (inactive) | > 100 µM (inactive) | – | – | > 100 µM (inactive) | > 100 µM (inactive) | > 100 µM (inactive) | > 100 µM (inactive) | > 100 µM (inactive) | 25.5 µM (inactive) | > 100 µM (inactive)
9 | CCN(/C=C1/C(=O)C(c2ccccc2)N(c2ccccc2)C1=O)CC (stereo not given) | > 10 µM (inactive) | > 10 µM (inactive) | > 10 µM (inactive) | – | > 10 µM (inactive) | > 10 µM (inactive) | > 10 µM (inactive) | > 10 µM (inactive) | > 10 µM (inactive) | > 10 µM (inactive) | > 10 µM (inactive) | > 10 µM (inactive) | > 10 µM (inactive) | > 10 µM (inactive) | 6.44 µM (inactive) | > 10 µM (inactive) | > 10 µM (inactive) | > 10 µM (inactive) | > 10 µM (inactive) | > 10 µM (inactive)
10 | CCOC(=O)CC(=O)Nc1cccc2sc3ncccc3c(=O)c12 | – | 65.8 µM (inactive) | 33 µM (inactive) | – | 38.8 µM (inactive) | > 10 µM (inactive) | 10 µM (inactive) | 32 µM (inactive) | 34.4 µM (inactive) | 20.3 µM (inactive) | 52.4 µM (inactive) | 3.09 µM (inactive) | 34.3 µM (inactive) | 51.3 µM (inactive) | 12.9 µM (inactive) | 3.95 µM (inactive) | > 100 µM (inactive) | 31.7 µM (inactive) | 25.7 µM (inactive) | 0.57 µM (active)
11 | Cc1cc(C)nc(NS(=O)(=O)c2ccc(NN=c3c4ccccc4n(C)c4ccccc34)cc2)n1 | – | 26.4 µM (inactive) | 60.5 µM (inactive) | 15.6 µM (inactive) | 33.3 µM (inactive) | 45.8 µM (inactive) | 15.5 µM (inactive) | 25.6 µM (inactive) | 30.2 µM (inactive) | 26.9 µM (inactive) | 30.1 µM (inactive) | 7.62 µM (inactive) | 15.1 µM (inactive) | 42.3 µM (inactive) | 12.7 µM (inactive) | 13.9 µM (inactive) | 39.3 µM (inactive) | 20.8 µM (inactive) | 16.6 µM (inactive) | 17.3 µM (inactive)
12 | CN1CN(c2ccccc2)C2(CCN(C3Nc4ccccc4O3)CC2)C1=O (stereo not given) | 15.5 µM (inactive) | – | 17 µM (inactive) | – | 17.9 µM (inactive) | 22.9 µM (inactive) | 9.57 µM (inactive) | 21.2 µM (inactive) | 17.2 µM (inactive) | 17.6 µM (inactive) | 26.2 µM (inactive) | 14.5 µM (inactive) | 13.6 µM (inactive) | 23.7 µM (inactive) | 20.9 µM (inactive) | 22.2 µM (inactive) | 16.7 µM (inactive) | 16.1 µM (inactive) | 27.5 µM (inactive) | 19.5 µM (inactive)
13 | Cc1ccc(/N=N/c2c(O)ccc3ccccc23)cc1 | > 100 µM (inactive) | > 100 µM (inactive) | 82 µM (inactive) | > 100 µM (inactive) | > 100 µM (inactive) | > 100 µM (inactive) | 46.8 µM (inactive) | > 100 µM (inactive) | 32.4 µM (inactive) | > 100 µM (inactive) | > 100 µM (inactive) | > 100 µM (inactive) | > 100 µM (inactive) | 95.7 µM (inactive) | > 100 µM (inactive) | > 100 µM (inactive) | > 100 µM (inactive) | > 100 µM (inactive) | > 100 µM (inactive) | –
14 | COC(=O)CC(c1cn(S(=O)(=O)c2ccc(C)cc2)c2ccccc12)C1C[C@@H](C(=O)OC)N(C(=O)OC(C)(C)C)C1=O (stereo not given in full) | 71.4 µM (inactive) | > 100 µM (inactive) | > 100 µM (inactive) | – | 26.7 µM (inactive) | 16.4 µM (inactive) | 3.91 µM (inactive) | 66.8 µM (inactive) | 31 µM (inactive) | > 100 µM (inactive) | 43.4 µM (inactive) | 9.79 µM (inactive) | 44.3 µM (inactive) | > 100 µM (inactive) | 64.1 µM (inactive) | 95.3 µM (inactive) | > 100 µM (inactive) | 55.6 µM (inactive) | 45.6 µM (inactive) | 33.5 µM (inactive)
15 | COc1cc(C2C(Cl)C(=O)N2c2c(C)n(C)n(-c3ccccc3)c2=O)ccc1O (stereo not given) | – | 35 µM (inactive) | 23.7 µM (inactive) | 21.3 µM (inactive) | 17.7 µM (inactive) | 14.1 µM (inactive) | 15.1 µM (inactive) | 14.7 µM (inactive) | 28.2 µM (inactive) | 21.5 µM (inactive) | 19.4 µM (inactive) | 18.1 µM (inactive) | 20.3 µM (inactive) | – | – | 44.3 µM (inactive) | 16.4 µM (inactive) | 16 µM (inactive) | 16.9 µM (inactive) | 13.2 µM (inactive)
